Data published in patent publication US9828623B2 (priority 2014, dated 2017).

test system: cDNA probe; conditions: pH 7.5

Substance	event mean residence time [ms]
TTTTTTTTTTTTTTTTTTTT [T20]	0.12 ± 0.01
AAAAAAAAAAAAAAAAAAAA [A20]	11.7 ± 0.2
5′-GGATTATTGTGAAATATTGA-3′ [aLF-1]	342 ± 35
5′-GGATTATGGTGAAATATTGA-3′ [aLF-2]	57.4 ± 2.5
